For this data set the following is noted: liquid nasal compositions, common storage conditions. From the text:
The present inventors have accordingly conducted extensive researches for finding a suitable stabilizing agent.

Results on 1 compound are retold here after US5124315A, “Liquid pharmaceutical composition for nasal administration containing a polypeptide as active ingredient” (Phideatech S.R.L., priority 1991, dated 1992).

On to `N.N.O=C(O)C(O)C(O)C(=O)O` (stereo not shown) [ammonium tartrate], for which the “stabilizing activity on liquid compositions containing polypeptides” value was “satisfactory stabilizing agent”.
